Values after ≈ are worked out from the molar mass of the structure shown.

The target in assay [1] is T1, PBP1a from Acinetobacter baumannii (ATCC 19606) (Acinetobacter baumannii, UniProt A0ABX6CK30).
T1 sequence (A0ABX6CK30 1-851): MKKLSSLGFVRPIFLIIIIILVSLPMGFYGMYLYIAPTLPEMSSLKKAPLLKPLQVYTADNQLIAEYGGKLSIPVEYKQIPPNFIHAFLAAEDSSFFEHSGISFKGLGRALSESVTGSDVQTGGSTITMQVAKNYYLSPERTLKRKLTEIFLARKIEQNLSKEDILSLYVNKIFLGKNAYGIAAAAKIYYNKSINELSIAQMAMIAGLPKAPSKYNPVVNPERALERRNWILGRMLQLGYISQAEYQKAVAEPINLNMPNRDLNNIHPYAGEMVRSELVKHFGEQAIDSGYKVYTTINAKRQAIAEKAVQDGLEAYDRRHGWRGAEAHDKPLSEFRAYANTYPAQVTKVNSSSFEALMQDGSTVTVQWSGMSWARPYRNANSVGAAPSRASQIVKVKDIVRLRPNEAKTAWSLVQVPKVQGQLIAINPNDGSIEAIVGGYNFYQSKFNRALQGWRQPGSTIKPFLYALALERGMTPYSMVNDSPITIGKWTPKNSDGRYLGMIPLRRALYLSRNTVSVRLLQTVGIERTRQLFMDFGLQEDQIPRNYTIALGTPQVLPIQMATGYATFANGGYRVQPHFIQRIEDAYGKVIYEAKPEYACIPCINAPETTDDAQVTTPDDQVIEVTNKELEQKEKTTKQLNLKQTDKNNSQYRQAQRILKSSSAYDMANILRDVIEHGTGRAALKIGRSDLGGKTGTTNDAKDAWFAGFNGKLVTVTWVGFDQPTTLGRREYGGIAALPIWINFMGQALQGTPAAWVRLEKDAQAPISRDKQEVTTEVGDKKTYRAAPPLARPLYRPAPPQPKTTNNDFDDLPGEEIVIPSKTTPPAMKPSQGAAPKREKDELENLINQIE
Briefly: Bocillin-FL fluorescence polarization competition binding, A. baumannii PBP1a. To be noted: fluorescence polarization competition binding assay using Bocillin-FL; read-out: A. baumannii PBP1a Potency. Put shortly:
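Purified PBPs pre-incubated with inhibitor (E. coli PBP3 1.5 μM, 30 min; P. aeruginosa PBP3 0.75 μM, A. baumannii PBP1a 1 μM and PBP3 0.2 μM, 15 min), then Bocillin-FL 0.1 μM (0.05 μM for PBP1a) added; FP read up to 60 min. EC50 = concentration halving bound Bocillin-FL.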
A general note: Polarisation of emitted light reports the rotation of a fluorescent probe.

In assay [2] the test system is P. aeruginosa CDC-0095. The assay is described as follows: microbe, parasite or virus in culture. It is filed as cell-based. To be noted: Pseudomonas aeruginosa, CDC0095, read-out: Minimum inhibitory concentration, P. aeruginosa CDC-0095.
The test system of assay [3] is P. aeruginosa ATCC 27853. Briefly: microbe, parasite or virus in culture. It is filed as cell-based. To be noted: Pseudomonas aeruginosa, ATCC27853, read-out: Minimum inhibitory concentration, P. aeruginosa ATCC 27853.
For assay [4], the system named is A. baumannii CDC-0036. Briefly: microbe, parasite or virus in culture. To be noted: Acinetobacter baumannii, CDC0036, read-out: MIC, A. baumannii CDC-0036. Type of assay: cell-based.
In assay [5] the target is A. baumannii PBP2 (Acinetobacter baumannii, UniProt D0C8Z9). Briefly: Bocillin-FL competition binding via gel filtration, A. baumannii PBP2. In outline: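 Enzyme pre-incubated with increasing inhibitor concentrations, then Bocillin-FL added for 15 min further incubation. Bocillin-FL-bound PBP separated by gel filtration and fluorescence read. EC50 from fitting fraction PBP bound vs inhibitor concentration to a Hill-type equation (ymin, ymax, n).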
A. baumannii PBP2, sequence (D0C8Z9 whole entry): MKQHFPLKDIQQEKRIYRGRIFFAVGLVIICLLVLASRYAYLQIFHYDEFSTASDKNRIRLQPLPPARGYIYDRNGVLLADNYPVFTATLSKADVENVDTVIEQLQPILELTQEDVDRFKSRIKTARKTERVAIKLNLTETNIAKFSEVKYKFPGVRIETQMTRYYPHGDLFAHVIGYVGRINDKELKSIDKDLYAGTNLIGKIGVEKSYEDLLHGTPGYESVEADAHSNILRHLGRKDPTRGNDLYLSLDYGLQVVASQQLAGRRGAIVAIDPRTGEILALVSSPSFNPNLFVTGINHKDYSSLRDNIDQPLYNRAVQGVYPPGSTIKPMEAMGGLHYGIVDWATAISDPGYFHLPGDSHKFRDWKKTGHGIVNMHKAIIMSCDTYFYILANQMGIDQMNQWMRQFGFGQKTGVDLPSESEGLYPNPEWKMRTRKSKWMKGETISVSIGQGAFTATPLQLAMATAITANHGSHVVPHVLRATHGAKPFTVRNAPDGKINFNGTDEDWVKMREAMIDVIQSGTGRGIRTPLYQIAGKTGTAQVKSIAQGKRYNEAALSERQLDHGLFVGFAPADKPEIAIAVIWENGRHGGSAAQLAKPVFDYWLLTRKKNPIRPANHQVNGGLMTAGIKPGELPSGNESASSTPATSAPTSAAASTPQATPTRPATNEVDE
For orientation: SEC sorts molecules by how far they enter the pores of the column.

Assay [6] relates to P. aeruginosa CDC-0110. The assay is described as follows: microbe, parasite or virus in culture. To be noted: Pseudomonas aeruginosa, CDC0110, read-out: Minimum inhibitory concentration, P. aeruginosa CDC-0110. Type of assay: cell-based.

As usually defined, the EC50 is the midpoint of the concentration-response curve. Higher therefore signals lower potency in that assay. As to `O=C(O)c1cccc2c1OB(O)[C@@H](NC(=O)C(NC(=O)N1CCN(Cc3cc(F)c(O)c(O)c3Cl)C(=O)C1=O)c1ccc(P(=O)(O)O)cc1)C2` (stereo partly drawn) [Example 164, (3R)-3-(2-(4-(2-chloro-5-fluoro-3,4-dihydroxybenzyl)-2,3-dioxopiperazine-1-carboxamido)-2-(4-phosphonophenyl)acetamido)-2-hydroxy-3,4-dihydro-2H-benzo[e][1,2]oxaborinine-8-carboxylic acid], the IC50 in assay [1] was above 250 µM. Moreover, the MIC in assay [2], in assay [3], in assay [4] and in assay [6] was below 1 µg/mL in each case. Besides, in assay [5], the EC50 was below 10 µM.
Turning to `O=C(O)c1c(F)ccc2c1OB(O)[C@@H](NC(=O)C(NC(=O)N1CCN(C3CCN(C(=O)Nc4cc(O)cc(Cl)c4)CC3)C(=O)C1=O)c1cc(F)c(O)c(O)c1Cl)C2` (stereo partly drawn) [Example 484, (3R)-3-(2-(2-chloro-5-fluoro-3,4-dihydroxyphenyl)-2-(4-(1-((3-chloro-5-hydroxyphenyl)carbamoyl)piperidin-4-yl)-2,3-dioxopiperazine-1-carboxamido)acetamido)-7-fluoro-2-hydroxy-3,4-dihydro-2H-benzo[e][1,2]oxaborinine-8-carboxylic acid], in assay [1], the IC50 is above 250 µM. For the same molecule, the MIC in assay [2], in assay [3], in assay [4] and in assay [6] was 2 to 4 µg/mL (≈ 2.39 to 4.79 µM) throughout. Moreover, in assay [5], the EC50 is below 10 µM.
`O=C(O)c1c(F)ccc2c1OB(O)[C@@H](NC(=O)[C@H](NC(=O)N1CCN(C3CCN(C(=O)c4c(F)ccc(O)c4F)CC3)C1=O)c1cc(F)c(O)c(O)c1Cl)C2` (single isomer, unassigned) [Example 439]: the MIC in assay [2] was 2 to 4 µg/mL (≈ 2.52 to 5.04 µM); in assay [3], below 1 µg/mL; in assay [4], below 1 µg/mL; in assay [6], below 1 µg/mL. For the same molecule, the EC50 in assay [5] was below 10 µM.
Regarding `O=C(O)c1c(F)ccc2c1OB(O)[C@@H](NC(=O)[C@H](NC(=O)N1CCN(C3CCN(C(=O)c4cc(O)ccc4F)CC3)C1=O)c1cc(F)c(O)c(O)c1Cl)C2` (single isomer, unassigned) [Example 433], the MIC in assay [2], in assay [3], in assay [4] and in assay [6] was below 1 µg/mL each time. Moreover, the EC50 in assay [5] is below 10 µM.
As to `O=C(O)c1c(F)ccc2c1OB(O)[C@@H](NC(=O)[C@H](NC(=O)N1CCN(C3CCN(C(=O)c4c(F)ccc(O)c4Cl)CC3)C1=O)c1cc(F)c(O)c(O)c1Cl)C2` (single isomer, unassigned) [Example 440], the MIC in assay [2], in assay [3], in assay [4] and in assay [6] was below 1 µg/mL throughout. Moreover, the EC50 in assay [5] is below 10 µM.
Regarding `O=C(O)c1c(F)ccc2c1OB(O)[C@@H](NC(=O)[C@H](NC(=O)N1CCN(C3CCN(C(=O)c4ccc(O)cc4)CC3)C1=O)c1cc(F)c(O)c(O)c1Cl)C2` (single isomer, unassigned) [Example 463], the MIC in assay [2], in assay [3], in assay [4] and in assay [6] was below 1 µg/mL each time. This molecule returned an EC50 in assay [5] below 10 µM.
`O=C(O)c1c(F)ccc2c1OB(O)[C@@H](NC(=O)[C@H](NC(=O)N1CCN(C3CCN(C(=O)c4cc(O)c(F)c(O)c4)CC3)C1=O)c1cc(F)c(O)c(O)c1Cl)C2` (single isomer, unassigned) [Example 443]: the MIC in assay [2], in assay [3], in assay [4] and in assay [6] was below 1 µg/mL each time. This molecule came in with an EC50 in assay [5] below 10 µM.
`O=C(O)c1c(F)ccc2c1OB(O)[C@@H](NC(=O)[C@H](NC(=O)N1CCN(C3CCN(C(=O)Nc4cc(O)cc(O)c4)CC3)C1=O)c1cc(F)c(O)c(O)c1Cl)C2` [Example 456, (R)-3-((R)-2-(2-chloro-5-fluoro-3,4-dihydroxyphenyl)-2-(3-(1-((3,5-dihydroxyphenyl)carbamoyl)piperidin-4-yl)-2-oxoimidazolidine-1-carboxamido)acetamido)-7-fluoro-2-hydroxy-3,4-dihydro-2H-benzo[e][1,2]oxaborinine-8-carboxylic acid]: the MIC in assay [2], in assay [3], in assay [4] and in assay [6] was below 1 µg/mL in each case. This molecule showed an EC50 in assay [5] below 10 µM.
For the molecule `O=C(NCCCS(=O)(=O)N1CCN(C(=O)N[C@H](C(=O)N[C@H]2Cc3ccc(F)c(C(=O)O)c3OB2O)c2ccc(P(=O)(O)O)cc2)C1=O)c1ccc(O)c(O)c1Cl` (single isomer, unassigned) [Example 169], the MIC in assay [2], in assay [3], in assay [4] and in assay [6] was above 128 µg/mL in each case. In assay [5], this molecule showed an EC50 of 50 to 250 µM.
Consider `O=C(O)c1c(F)ccc2c1OB(O)[C@@H](NC(=O)[C@H](NC(=O)N1CCN(C3CCN(C(=O)c4cccc(O)c4Cl)CC3)C1=O)c1cc(F)c(O)c(O)c1Cl)C2` (single isomer, unassigned) [Example 432], for which the MIC in assay [2] was below 1 µg/mL; in assay [3], below 1 µg/mL; in assay [4], 2 to 4 µg/mL (≈ 2.52 to 5.05 µM); in assay [6], below 1 µg/mL. In addition, the EC50 in assay [5] is below 10 µM.
For the molecule `O=C(O)c1c(F)ccc2c1OB(O)[C@@H](NC(=O)[C@H](NC(=O)N1CCN(C3CCN(C(=O)c4ccc(F)c(O)c4)CC3)C1=O)c1cc(F)c(O)c(O)c1Cl)C2` (single isomer, unassigned) [Example 435], the MIC in assay [2], in assay [3], in assay [4] and in assay [6] was below 1 µg/mL each time. The EC50 in assay [5] is below 10 µM.
Turning to `O=C(O)c1c(F)ccc2c1OB(O)[C@@H](NC(=O)[C@H](NC(=O)N1CCN(C3CCN(C(=O)c4ccc(F)c(O)c4F)CC3)C1=O)c1cc(F)c(O)c(O)c1Cl)C2` (single isomer, unassigned) [Example 437], the MIC in assay [2], in assay [3], in assay [4] and in assay [6] was below 1 µg/mL each time. In assay [5], this molecule gave an EC50 below 10 µM.
With `O=C(O)c1c(F)ccc2c1OB(O)[C@@H](NC(=O)[C@H](NC(=O)N1CCN(C3CCN(C(=O)c4cccc(O)c4)CC3)C1=O)c1cc(F)c(O)c(O)c1Cl)C2` (single isomer, unassigned) [Example 430], the MIC was below 1 µg/mL in assay [2], below 1 µg/mL in assay [3], 8 to 16 µg/mL (≈ 10.6 to 21.1 µM) in assay [4] and below 1 µg/mL in assay [6]. The same molecule showed an EC50 in assay [5] below 10 µM.
As to `O=C(O)c1c(F)ccc2c1OB(O)[C@@H](NC(=O)[C@H](NC(=O)N1CCN(C3CCN(C(=O)c4cccc(O)c4F)CC3)C1=O)c1cc(F)c(O)c(O)c1Cl)C2` (single isomer, unassigned) [Example 431], the MIC in assay [2], in assay [3], in assay [4] and in assay [6] was below 1 µg/mL throughout. The molecule further showed an EC50 in assay [5] below 10 µM.
In the case of `O=C(NCCS(=O)(=O)N1CCN(C(=O)N[C@@H](C(=O)N[C@H]2Cc3ccc(F)c(C(=O)O)c3OB2O)c2ccc(P(=O)(O)O)cc2)C1=O)c1ccc(O)c(O)c1Cl` (single isomer, unassigned) [Example 168], the MIC fell in the range of 8 to 16 µg/mL (≈ 9.66 to 19.3 µM) in assay [2], 8 to 16 µg/mL (≈ 9.66 to 19.3 µM) in assay [3], 2 to 4 µg/mL (≈ 2.42 to 4.83 µM) in assay [4] and 32 to 64 µg/mL (≈ 38.7 to 77.3 µM) in assay [6]. Further, the EC50 in assay [5] was below 10 µM.

Values taken from patent publication US20240270762A1, “PENICILLIN-BINDING PROTEIN INHIBITORS” (priority 2021, published 2024).
